Results as given in patent publication US20240018120A1, “MAGL INHIBITORS” (H. LUNDBECK A/S, priority 2020, published 2024).

Experiments:
MAGL [1] = target: T1, MAGL (Homo sapiens, UniProt Q99685); test: In vitro competitive substrate hydrolysis enzyme activity assay (pNPA), HEK293 cell lysates; assay type: biochemical; set-up: expressed in transfected cells; host or cells: HEK293; conditions: HEK293 lysate
T1 sequence (Q99685 1-303): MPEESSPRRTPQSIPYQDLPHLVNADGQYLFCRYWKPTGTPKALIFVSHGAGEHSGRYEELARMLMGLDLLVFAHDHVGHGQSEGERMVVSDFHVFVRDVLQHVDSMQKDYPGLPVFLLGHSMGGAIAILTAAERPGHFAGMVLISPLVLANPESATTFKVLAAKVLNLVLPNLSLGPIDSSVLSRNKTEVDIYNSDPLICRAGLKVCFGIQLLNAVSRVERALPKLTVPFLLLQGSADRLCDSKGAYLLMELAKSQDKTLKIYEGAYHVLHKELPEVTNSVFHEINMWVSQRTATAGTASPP
Protocol: HEK293 cell lysates expressing recombinant human MAGL enzyme and 4-nitrophenyl acetate (pNPA) substrate were diluted separately in 50 mM HEPES (pH 7.0) containing 200 mM KCl and 1 mM EDTA. Lysates (50 μL, ˜1.2 μg total protein) were preincubated with varying concentrations of inhibitors at 25° C. After 30 min, 2×pNPA substrate (50 μL, 2.5 mM) was added and the rate of substrate turnover was monitored by measuring the increase in absorbance at wavelength 405 nm for 20 minutes at 25° C. using a Biotek Neo2 plate reader. The mean velocity was converted to percent enzyme activity following background subtraction and normalization to DMSO controls. IC50 values were determined by fitting percent enzyme activities to a non-linear regression, 4-parameter, sigmoidal dose response function in Prism GraphPad.

MAGL [2] = target: T1, MAGL; test: In vitro competitive activity-based protein profiling, PC3 human cell membrane proteomes; assay type: biochemical; set-up: endogenous in cells; host or cells: PC3 human cells (membrane proteome); conditions: human PC3 membrane proteome; for inhibition at 1 µM: read-out: MAGL % inh. 1 μM (human PC3)
Procedure, shortened: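 Competitive ABPP in PC3 membrane proteome (2.0 mg/mL protein): inhibitors preincubated 30 min at 37° C, then JW912-Bodipy probe added for 30 min at room temperature. MAGL band fluorescence after SDS-PAGE normalised to DMSO; IC50 from 4-parameter sigmoidal fit.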

Structure (SMILES)	IC50 (MAGL [1]) [µM]	IC50 (MAGL [2]) [µM]	inhibition at 1 µM (MAGL [2]) [%]
O=C(OC(C(F)(F)F)C(F)(F)F)N1CCC2(CC1)CC2C(=O)N1CCc2cnc(C(F)(F)F)nc2C1 (single isomer, unassigned) [Example 58, 1,1,1,3,3,3-hexafluoropropan-2-yl (R or S)-1-(2-(trifluoromethyl)-5,6,7,8-tetrahydropyrido[3,4-d]pyrimidine-7-carbonyl)-6-azaspiro[2.5]octane-6-carboxylate]	0.138	0.049	
Cc1ccc(NC(=O)C2CC23CCN(C(=O)OC(C(F)(F)F)C(F)(F)F)CC3)cn1 (single isomer, unassigned) [Example 81, 1,1,1,3,3,3-hexafluoropropan-2-yl (R or S)-1-((6-methylpyridin-3-yl)carbamoyl)-6-azaspiro[2.5]octane-6-carboxylate]	0.000864	0.00087	100
CN(C(=O)C1CC12CCN(C(=O)OC(C(F)(F)F)C(F)(F)F)CC2)c1ccccn1 (single isomer, unassigned) [Example 45, 1,1,1,3,3,3-hexafluoropropan-2-yl (R or S)-1-(methyl(pyridin-2-yl)carbamoyl)-6-azaspiro[2.5]octane-6-carboxylate]	0.06	0.014	100
O=C(Nc1ccnc(C(F)(F)F)n1)[C@@H]1CC12CCN(C(=O)OC(C(F)(F)F)C(F)(F)F)CC2 (single isomer, unassigned) [Example 18]	0.053	0.039	100

The remaining molecules from weak to strong by IC50 (MAGL [1]), led by results:

IC50 (MAGL [1]) [µM]	IC50 (MAGL [2]) [µM]	inhibition at 1 µM (MAGL [2]) [%]	Structure (SMILES)
0.862	0.4	90	O=C(OC(C(F)(F)F)C(F)(F)F)N1CCC2(CC1)CC2C(=O)N1CCn2c(nnc2C2CC2)C1 (racemic) [Example 185, 1,1,1,3,3,3-hexafluoropropan-2-yl (+)1-(3-cyclopropyl-5,6,7,8-tetrahydro-[1,2,4]triazolo[4,3-a]pyrazine-7-carbonyl)-6-azaspiro[2.5]octane-6-carboxylate]
0.167	0.099		O=C(Nc1cccnc1C(F)(F)F)C1CC12CCN(C(=O)OC(C(F)(F)F)C(F)(F)F)CC2 (single isomer, unassigned) [Example 85, 1,1,1,3,3,3-hexafluoropropan-2-yl (R or S)-1-((2-(trifluoromethyl)pyridin-3-yl)carbamoyl)-6-azaspiro[2.5]octane-6-carboxylate]
0.0101	0.0089	100	O=C(Nc1cccnc1C(F)(F)F)C1CC12CCN(C(=O)OC(C(F)(F)F)C(F)(F)F)CC2 (single isomer, unassigned) [Example 84, 1,1,1,3,3,3-hexafluoropropan-2-yl (R or S)-1-((2-(trifluoromethyl)pyridin-3-yl)carbamoyl)-6-azaspiro[2.5]octane-6-carboxylate]
0.00579	0.0047	100	O=C(NC(=O)C1CC12CCN(C(=O)OC(C(F)(F)F)C(F)(F)F)CC2)C1CCCCC1 (single isomer, unassigned) [Example 90, 1,1,1,3,3,3-hexafluoropropan-2-yl (R or S)-1-((cyclohexanecarbonyl)carbamoyl)-6-azaspiro[2.5]octane-6-carboxylate]
0.00552	0.0097		O=C(Nc1cnc(C(F)(F)F)nc1)C1CC12CCN(C(=O)OC(C(F)(F)F)C(F)(F)F)CC2 (single isomer, unassigned) [Example 99, 1,1,1,3,3,3-hexafluoropropan-2-yl (R or S)-1-((2-(trifluoromethyl)pyrimidin-5-yl)carbamoyl)-6-azaspiro[2.5]octane-6-carboxylate]
